Structures are written as SMILES. Where a name gives a salt, the structure may show the parent alone.

Sequence of IgE-Tb / FcεRIα-Y131A-AF488 (P01854 1-427 limits assumed, stated change not applied): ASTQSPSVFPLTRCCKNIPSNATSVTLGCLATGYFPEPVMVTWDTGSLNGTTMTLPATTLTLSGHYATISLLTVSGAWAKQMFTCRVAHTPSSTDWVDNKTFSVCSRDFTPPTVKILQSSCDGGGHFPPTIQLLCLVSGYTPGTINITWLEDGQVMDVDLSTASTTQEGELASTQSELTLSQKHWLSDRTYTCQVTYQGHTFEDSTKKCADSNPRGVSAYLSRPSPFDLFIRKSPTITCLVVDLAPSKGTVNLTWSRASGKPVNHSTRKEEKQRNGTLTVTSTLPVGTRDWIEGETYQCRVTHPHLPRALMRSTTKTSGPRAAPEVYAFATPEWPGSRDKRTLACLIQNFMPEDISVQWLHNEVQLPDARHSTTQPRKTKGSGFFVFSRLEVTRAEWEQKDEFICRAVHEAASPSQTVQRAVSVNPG

This experiment addresses IgE-Tb / FcεRIα-Y131A-AF488 (Homo sapiens, UniProt P01854). Put plainly: IgE-Tb / FcεRIα-Y131A-AF488 FRET assay (protocol for examples 1 to 233). The class given is binding. As to conditions: examples 1 to 233: 5 nM IgE-Tb, 25 nM FcεRIα-Y131A-AF488, incubated 2 hours at room temperature; read-out: Y131A FRET IC50 range. On the procedure:
For examples 1 to 233, the assay was conducted according to the following: Each assay reaction was conducted in a volume of 25 μl in a 384-well half-volume plate. 10 point compound serial dilutions (3-fold) were generated in DMSO at a concentration of ×50 that of the final assay concentration (FAC). Compound solutions were then prepared by IgE-Tb diluting 10-fold in assay buffer. For the assay, 5 μl of diluted compound was added to 10 μl of, followed by addition of 10 μl FcεRIα-Y131A-AF488. FRET reagents FACs were 5 nM IgE-Tb, 25 nM FcεRIα-Y131A-AF488. Usually the top FAC of compound in the assay was 10 μM. The final DMSO concentration was 2%. The minimum signal (MIN) was measured by adding 5l unlabelled FcεRIα at 1 μM (FAC=200 nM) to the FRET reagents. The maximum FRET signal (MAX) was measured in wells containing FRET reagents but no compound. The assay was incubated for 2 hours at room temperature, protected from light and evaporation, and with gentle agitation.
Measurement of FRET for each well was carried out by exciting at 330 nm and measuring emission at 495/520 nm using an Envision plate reader (Perkin Elmer). FRET ratio was calculated as follows: Emission at 520/Emission at 495×1000.
The FRET ratio was used for the data analysis.
Z′ was calculated as follows (σ=standard deviation and μ=mean): 1−((3×σMAX)+(3×σMIN))/(μMAX−μMIN)
Z′ above 0.5 was considered a good assay.
Background signal (MIN) was subtracted from all wells. Using the background subtracted values, the percent inhibition by compound in each test-well was calculated as follows: 100−Test-well FRET ratio/MAX FRET ratio×100.
Percent inhibition was plotted against compound concentration. IC50 values for each compound were determined using four parameter logistic fit model using the XLFIT5 software package.
Consider `O=C(NCC1CC1)c1c(NC(=O)C2CC2)sc2c1CNCC2` [Example 3, 2-(Cyclopropanecarbonylamino)-N-(cyclopropylmethyl)-4,5,6,7-tetrahydrothieno[3,2-c]pyridine-3-carboxamide; hydrochloride], for which the IC50 – broadly, the point on the concentration scale where inhibition reaches its midpoint – lay within 10 to 50 µM.
Then `CS(=O)(=O)N1CCc2sc(NC(=O)C3CC3)c(C(=O)NCC3CC3)c2C1` [Example 4, 2-(Cyclopropanecarbonylamino)-N-(cyclopropylmethyl)-5-methylsulfonyl-6,7-dihydro-4H-thieno[3,2-c]pyridine-3-carboxamide], with 10 to 50 µM; and `CC(=O)N1CCc2sc(NC(=O)C3CC3)c(C(=O)NCC3CC3)c2C1` [Example 5, 5-Acetyl-2-(cyclopropanecarbonylamino)-N-(cyclopropylmethyl)-6,7-dihydro-4H-thieno[3,2-c]pyridine-3-carboxamide], with 10 to 50 µM; and `CS(=O)(=O)N1CCCc2c1sc(NC(=O)C1CC1)c2C(=O)NCC1CC1` [Example 6, 2-(Cyclopropanecarbonylamino)-N-(cyclopropylmethyl)-7-methylsulfonyl-5,6-dihydro-4H-thieno[2,3-b]pyridine-3-carboxamide], with 1 to 10 µM.
As for `CC(=O)N1CCCc2c1sc(NC(=O)C1CC1)c2C(=O)NCC1CC1` [Example 7, 7-Acetyl-2-(cyclopropanecarbonylamino)-N-(cyclopropylmethyl)-5,6-dihydro-4H-thieno[2,3-b]pyridine-3-carboxamide], the IC50 lay within 10 to 50 µM.
Take `COCC(=O)N1CCc2sc(NC(=O)C3CC3)c(C(=O)NCC3CC3)c2C1` [Example 8, 2-(Cyclopropanecarbonylamino)-N-(cyclopropylmethyl)-5-(2-methoxyacetyl)-6,7-dihydro-4H-thieno[3,2-c]pyridine-3-carboxamide]: the IC50 lay within 10 to 50 µM.
To `O=C(NCC1CC1)c1c(NC(=O)C2CC2)sc2c1CN(C(=O)Cc1ccccc1)CC2` [Example 9, 2-(Cyclopropanecarbonylamino)-N-(cyclopropylmethyl)-5-(2-phenylacetyl)-6,7-dihydro-4H-thieno[3,2-c]pyridine-3-carboxamide] belongs 10 to 50 µM; to `CC(C)(C)OC(=O)NCCN1CCc2sc(NC(=O)C3CC3)c(C(=O)NCC3CC3)c2C1` [Example 10, Tert-butyl N-[2-[2-(cyclopropanecarbonylamino)-3-(cyclopropylmethylcarbamoyl)-6,7-dihydro-4H-thieno[3,2-c]pyridin-5-yl]ethyl]carbamate], 10 to 50 µM; to `O=C(NCC1CC1)c1c(NC(=O)C2CC2)sc2c1CN(CCc1ccccc1)CC2` [Example 11, 2-(Cyclopropanecarbonylamino)-N-(cyclopropylmethyl)-5-(2-phenylethyl)-6,7-dihydro-4H-thieno[3,2-c]pyridine-3-carboxamide], 10 to 50 µM.
For `COC(=O)CN1CCc2sc(NC(=O)C3CC3)c(C(=O)NCC3CC3)c2C1` [Example 12, Methyl 2-[2-(cyclopropanecarbonylamino)-3-(cyclopropylmethylcarbamoyl)-6,7-dihydro-4H-thieno[3,2-c]pyridin-5-yl]acetate], the IC50 fell in the range of 10 to 50 µM.
Then `O=C(Nc1sc2c(c1S(=O)(=O)NCC1CC1)CCCC2)C1CC1` [Example 15, N-[3-(Cyclopropylmethylsulfamoyl)-4,5,6,7-tetrahydrobenzothiophen-2-yl]cyclopropanecarboxamide], with less than 1 µM; and `CCCNS(=O)(=O)c1c(NC(=O)C2CC2)sc2c1CCCC2` [Example 16, N-[3-(Propylsulfamoyl)-4,5,6,7-tetrahydrobenzothiophen-2-yl]cyclopropanecarboxamide], with less than 1 µM; and `CC(C)CNS(=O)(=O)c1c(NC(=O)C2CC2)sc2c1CCCC2` [Example 17, N-[3-(Isobutylsulfamoyl)-4,5,6,7-tetrahydrobenzothiophen-2-yl]cyclopropanecarboxamide], with less than 1 µM.
For `CC(C)(O)CNS(=O)(=O)c1c(NC(=O)C2CC2)sc2c1CCCC2` [Example 18, N-[3-[(2-Hydroxy-2-methyl-propyl)sulfamoyl]-4,5,6,7-tetrahydrobenzothiophen-2-yl]cyclopropanecarboxamide], the IC50 was in the range of 1 to 10 µM.
Take `CC(O)CNS(=O)(=O)c1c(NC(=O)C2CC2)sc2c1CCCC2` (centres unmarked) [Example 19, N-[3-(2-Hydroxypropylsulfamoyl)-4,5,6,7-tetrahydrobenzothiophen-2-yl]cyclopropanecarboxamide]: the IC50 is less than 1 µM.
To `O=C(Nc1sc2c(c1S(=O)(=O)N1CCCC1)CCCC2)C1CC1` [Example 20, N-(3-Pyrrolidin-1-ylsulfonyl-4,5,6,7-tetrahydrobenzothiophen-2-yl)cyclopropanecarboxamide] belongs 1 to 10 µM; to `O=C(Nc1sc2c(c1S(=O)(=O)NC1CC(F)C1)CCCC2)C1CC1` (centres unmarked) [Example 21, N-[3-[(3-Fluorocyclobutyl)sulfamoyl]-4,5,6,7-tetrahydrobenzothiophen-2-yl]cyclopropanecarboxamide], less than 1 µM.
On to `CCCCS(=O)(=O)c1c(NC(=O)C2CC2)sc2c1CCCC2` [Example 22, N-(3-Butylsulfonyl-4,5,6,7-tetrahydrobenzothiophen-2-yl)cyclopropanecarboxamide], for which the IC50 is 1 to 10 µM.
With `CC(C)CNS(=O)(=O)c1c(NC(=O)C2CC2)sc2c1CC(Nc1ncccn1)CC2` (centres unmarked) [Example 23, N-[3-(Isobutylsulfamoyl)-5-(pyrimidin-2-ylamino)-4,5,6,7-tetrahydrobenzothiophen-2-yl]cyclopropanecarboxamide], the IC50 is less than 1 µM.
Regarding `CC(C)CNS(=O)(=O)c1c(NC(=O)C2CC2)sc2c1CC(NS(C)(=O)=O)CC2` (centres unmarked) [Example 24, N-[3-(Isobutylsulfamoyl)-5-(methanesulfonamido)-4,5,6,7-tetrahydrobenzothiophen-2-yl]cyclopropanecarboxamide], the half-maximal inhibitory concentration (IC50) is less than 1 µM.
For `CCCNS(=O)(=O)c1c(NC(=O)C2CC2)sc2c1CC(NC(=S)Nc1ccc(OC)cc1)CC2` (centres unmarked) [Example 25, N-[5-[(4-Methoxyphenyl)carbamothioylamino]-3-(propylsulfamoyl)-4,5,6,7-tetrahydrobenzothiophen-2-yl]cyclopropanecarboxamide], the IC50 is less than 1 µM.
Turning to `CCCNS(=O)(=O)c1c(NC(=O)C2CC2)sc2c1CC(NC(=O)Nc1ccc(OC)cc1)CC2` (centres unmarked) [Example 26, N-[5-[(4-Methoxyphenyl)carbamoylamino]-3-(propylsulfamoyl)-4,5,6,7-tetrahydrobenzothiophen-2-yl]cyclopropanecarboxamide], the IC50 was less than 1 µM.
To `CCNC(=O)C1CCCc2c1sc(NC(=O)C1CC1)c2S(=O)(=O)NCC(C)C` (centres unmarked) [Example 27, 2-(Cyclopropanecarbonylamino)-N-ethyl-3-(isobutylsulfamoyl)-4,5,6,7-tetrahydrobenzothiophene-7-carboxamide] belongs 1 to 10 µM; to `CCNC(=O)C1CCc2sc(NC(=O)C3CC3)c(S(=O)(=O)NCC(C)C)c2C1` (centres unmarked) [Example 28, 2-(Cyclopropanecarbonylamino)-N-ethyl-3-(isobutylsulfamoyl)-4,5,6,7-tetrahydrobenzothiophene-5-carboxamide], less than 1 µM.
With `CCCC[S+]([O-])c1c(NC(=O)C2CC2)sc2c1CCCC2` (centres unmarked) [Example 29, N-(3-Butylsulfinyl-4,5,6,7-tetrahydrobenzothiophen-2-yl)cyclopropanecarboxamide], the IC50 lay in the range of 1 to 10 µM.
`Cc1ccc(NC(=NC#N)NC2CCc3sc(NC(=O)C4CC4)c(S(=O)(=O)NCC4CC4)c3C2)cc1` (centres unmarked) [Example 30, N-[5-[[N′-Cyano-N-(p-tolyl)carbamimidoyl]amino]-3-(cyclopropylmethylsulfamoyl)-4,5,6,7-tetrahydrobenzothiophen-2-yl]cyclopropanecarboxamide]: the concentration for half-maximal inhibition (IC50) is less than 1 µM.
Turning to `CCNC(=NC#N)NC1CCc2sc(NC(=O)C3CC3)c(S(=O)(=O)NCC3CC3)c2C1` (centres unmarked) [Example 31, N-[5-[[N′-Cyano-N-ethyl-carbamimidoyl]amino]-3-(cyclopropylmethylsulfamoyl)-4,5,6,7-tetrahydrobenzothiophen-2-yl]cyclopropanecarboxamide], the IC50 is less than 1 µM.
For `O=C1NCc2cc(NC(=O)C3CCc4sc(NC(=O)C5CC5)c(S(=O)(=O)NCC5CC5)c4C3)ccc21` (centres unmarked) [Example 32, 2-(Cyclopropanecarbonylamino)-3-(cyclopropylmethylsulfamoyl)-N-(1-oxoisoindolin-5-yl)-4,5,6,7-tetrahydrobenzothiophene-5-carboxamide], the half-maximal inhibitory concentration (IC50) was less than 1 µM.
Then `NS(=O)(=O)c1cccc(NC(=O)C2CCc3sc(NC(=O)C4CC4)c(S(=O)(=O)NCC4CC4)c3C2)c1` (centres unmarked) [Example 33, 2-(Cyclopropanecarbonylamino)-3-(cyclopropylmethylsulfamoyl)-N-(3-sulfamoylphenyl)-4,5,6,7-tetrahydrobenzothiophene-5-carboxamide], with less than 1 µM.

The values above are taken from patent US12018021B2 (UCB Biopharma SRL, priority 2018, dated 2024).
